According to patent US20060216693A1, “Method of screening compounds which inhibit the initiation of the retrotranscription of the rna of virus hiv-1 and means for implementing same” (priority 2003, published 2006):
Several values for one entry are separate records, joined by “and”; a condition that tells them apart may be missing. Equal values may be shown once.

What was measured:
[1] = system: HIV-1 reverse transcriptase; experiment: Synthesis of product corresponding to reverse transcription initiation (addition of first 6 nucleotides to biotinylated tRNAHis primer), scintillation proximity assay; type: biochemical; settings: calculated
Method: FIG. 7: (−) Synthesis of a Product Corresponding to Retrotranscription Initiation from Biotinylated vRNA complex [His-AC-GAC]/tRNA^His
The signal attenuation is detected with […] of AZTTP. The numbers in bold and italic on the top of histograms corresponds to the percent of residual signal compared to the control without inhibitor.
Reactions are stopped by adding EDTA 25 mM and extension product detection is performed as previously described.

[2] = system: HIV-1 reverse transcriptase; settings: 5 μM inhibitor, 5 μM each dNTP, 30 minute-reaction, 37° C.
[3] = biological target: HIV-1 reverse transcriptase (Human immunodeficiency virus type 1 group M subtype B, UniProt P04585); settings: selectivity measured in initiation and elongation (Rigourd and al., 2000); cited from earlier work

Row | SMILES | Theoretical signal ([1]; [dTTP]/[AZTTP] = 2, selectivity (AZTTP/dTTP) = 0.6) [%] | Theoretical signal ([1]; [dTTP]/[AZTTP] = 2, selectivity (AZTTP/dTTP) = 0.7) [%] | Theoretical signal ([1]; [dTTP]/[AZTTP] = 50, selectivity (AZTTP/dTTP) = 0.6) [%] | Theoretical signal ([1]; [dTTP]/[AZTTP] = 50, selectivity (AZTTP/dTTP) = 0.7) [%] | inhibition rate of (−) strand strong-stop DNA synthesis [2] | AZTTP incorporation selectivity against dTTP [3]
1 | Cc1cn([C@H]2C[C@H](N=[N+]=[N-])[C@@H](CO[P@](=O)(O)O[P@](=O)(O)OP(=O)(O)O)O2)c(=O)[nH]c1=O [AZTTP] | 60.7 | 56.7 | 97.7 | 97.3 | about 90% | 0.6 and 0.7
2 | Cc1cn([C@H]2C=C[C@@H](COP(=O)(O)OP(=O)(O)OP(=O)(O)O)O2)c(=O)[nH]c1=O [d4TTP] | – | – | – | – | 80% | –
